# From US20060216699A1, “Peptides for the detection of HIV-1 group O” (priority 1998, published 2006)
# Key:
# [1] = test system: anti-HIV-1 group O antibodies present in human serum; assay: ELISA: biotinylated peptide bound to streptavidin-coated wells, HIV-1 group O sera, anti-IgG:HRP, OPD, absorbance at 492 nm; type: binding
# Experimental: Serological recognition of the peptide by HIV-1 group O sera. Peptide 147 was evaluated for its ability to be recognized by anti-HIV-1 group O antibodies present in human serum from infected individuals. All group O samples were confirmed to be positive for HIV-1 group O by reverse transcriptase-polymerase chain reaction (RT-PCR) amplification of viral gp41 sequences using O-specific primers. The identity of the PCR product was further confirmed by DNA sequencing.
# This technique involves binding of the antigen to a solid phase, bringing the fluid to be tested into contact with the antigen-coated solid phase, washing away any unbound material, and then detecting bound antibodies with an enzyme-labeled second antibody. The presence of the enzyme is detected using a chromogenic or luminogenic substrate.
# To evaluate biotinylated peptide 147, wells of a microtiter plate were coated with streptavidin at a concentration of 1 μg/ml in 50 mM carbonate buffer, pH 9.6 (200 μl/well). Excess unbound streptavidin was removed by washing several times with phosphate buffered saline (PBS). Biotinylated peptide 147 was dissolved in a minimal volume of pure DMSO and then diluted into PBS to a concentration of 0.5 μg/ml. Two hundred microliters of the peptide solution were added to each well and the peptide allowed to bind to the streptavidin. After removing unbound peptide by washing with PBS, serum samples obtained from HIV-1 group O-infected patients were added to the wells of the plate. After a suitable incubation period, unbound material was removed by washing with PBS. A dilution of an anti-IgG:horse radish peroxidase (HRP) conjugate was added to each well and incubated for 30 minutes at 37° C. Unbound material was removed by extensive washing. Substrate solution containing O-phenylenediamine (OPD) and H2O2 was added to each well and the plate was further incubated, protected from light. After a 30 minute incubation period at room temperature, the reaction was terminated by the addition of 50 μl of 4N H2SO4 and the absorbance of each well was read at 492 nm.
# Peptide 147 was first tested by using undiluted (10 μl) serum samples. The sample measurements are in optical density (OD).
# A panel of serially diluted group O sera was tested with peptide 147 in order to evaluate the sensitivity of an ELISA using this antigen. Streptavidin-coated plates were prepared and loaded with peptide 147 as before, and tested using the dilutional panels. In addition, in order to compare the performance of […] peptide 147 with that of a genuine group O sequence, a second peptide was synthesized (peptide 146) corresponding to the sequence of the DUR variant.
# These peptides cover precisely the same region of gp41, and were tested in parallel.
# type B sample = assay: ELISA: biotinylated peptide bound to streptavidin-coated wells, type B sample; type: binding, human; conditions: undiluted
# [2] = test system: antibodies to HIV-1 group O; assay: Chemiluminescent ELISA: serially diluted peptide on streptavidin-coated wells, serum ODS007b 1:60, anti-human IgG:HRP, luminol; type: binding; conditions: for luminescent units: serum ODS007b 1:60
# Experimental: To compare the performance of peptide 147 to another genuine group O sequence, the peptide corresponding to the ANT70 sequence was synthesized (peptide 80). Peptides 147 and 80 were dissolved at the same concentration, serially diluted, and bound to streptavidin-coated wells. A 1:60 dilution of serum sample ODS007b (see Table 3) was added to all wells and incubated. After washing, an anti-human IgG:HRP conjugate was added, incubated, and the wells again thoroughly washed. In this case, a chemiluminescent substrate was used, consisting of luminol and a peracid salt. The emitted light was quantified using a luminometer. The results are tabulated in Table 4 and shown graphically in FIG. 2.
sequence,measurement,setting,value
NQQRLNSWGCKGRIICYTSARWH (HIV Consensus) [peptide 147],performance compared with a genuine group O sequence (peptide 146),"[1]; a number of the dilutional panels, in words",equaled or significantly exceeded that of a genuine group O sequence
same,binding of antibodies against the group O gp41 immunodominant region,"[1]; highly diluted samples, in words",suitable antigen capable of binding antibodies against the group O gp41 immunodominant region
same,OD492,"[1]; negative control (uninfected blood donor), undiluted sample (10 μl)",0.056 OD
same,OD492,"[1]; panel OP1, sample OP1A, dilution of original sample 2",2.500 OD
same,OD492,"[1]; panel OP1, sample OP1B, dilution of original sample 4",2.298 OD
same,OD492,"[1]; panel OP1, sample OP1C, dilution of original sample 8",2.465 OD
same,OD492,"[1]; panel OP1, sample OP1D, dilution of original sample 16",2.387 OD
same,OD492,"[1]; panel OP1, sample OP1E, dilution of original sample 32",2.013 OD
same,OD492,"[1]; panel OP1, sample OP1F, dilution of original sample 64",1.448 OD
same,OD492,"[1]; panel OP1, sample OP1G, dilution of original sample 128",1.150 OD
same,OD492,"[1]; panel OP1, sample OP1H, dilution of original sample 256",0.927 OD
same,OD492,"[1]; panel OP1, sample OP1I, dilution of original sample 512",0.504 OD
same,OD492,"[1]; panel OP1, sample OP1J, dilution of original sample 1024",0.053 OD
same,OD492,"[1]; panel OP2, sample OP2A, dilution of original sample 5",2.236 OD
same,OD492,"[1]; panel OP2, sample OP2B, dilution of original sample 10",2.320 OD
same,OD492,"[1]; panel OP2, sample OP2C, dilution of original sample 20",2.157 OD
same,OD492,"[1]; panel OP2, sample OP2D, dilution of original sample 40",1.844 OD
same,OD492,"[1]; panel OP2, sample OP2E, dilution of original sample 80",1.061 OD
same,OD492,"[1]; panel OP2, sample OP2F, dilution of original sample 160",0.689 OD
same,OD492,"[1]; panel OP2, sample OP2G, dilution of original sample 320",0.327 OD
same,OD492,"[1]; panel OP2, sample OP2H, dilution of original sample 640",0.184 OD
same,OD492,"[1]; panel OP2, sample OP2I, dilution of original sample 1280",0.179 OD
same,OD492,"[1]; panel OP2, sample OP2J, dilution of original sample 2560",0.090 OD
same,OD492,"[1]; panel OP3, sample OP3A, dilution of original sample 300",0.229 OD
same,OD492,"[1]; panel OP3, sample OP3B, dilution of original sample 600",0.373 OD
same,OD492,"[1]; panel OP3, sample OP3C, dilution of original sample 1200",0.211 OD
same,OD492,"[1]; panel OP4, sample OP4A, dilution of original sample 100",0.774 OD
same,OD492,"[1]; panel OP4, sample OP4B, dilution of original sample 200",0.608 OD
same,OD492,"[1]; panel OP4, sample OP4C, dilution of original sample 400",0.398 OD
same,OD492,"[1]; panel OP4, sample OP4D, dilution of original sample 800",0.277 OD
same,OD492,"[1]; panel OP4, sample OP4E, dilution of original sample 1600",0.040 OD
same,OD492,"[1]; panel OP5, sample OP5A, dilution of original sample 100",1.624 OD
same,OD492,"[1]; panel OP5, sample OP5B, dilution of original sample 200",1.027 OD
same,OD492,"[1]; panel OP5, sample OP5C, dilution of original sample 400",0.225 OD
same,OD492,"[1]; panel OP5, sample OP5D, dilution of original sample 800",0.302 OD
same,OD492,"[1]; panel OP6, sample OP6A, dilution of original sample 50",0.667 OD
same,OD492,"[1]; panel OP7-2, sample OP7-2A, dilution of original sample 100",2.081 OD
same,OD492,"[1]; panel OP7-2, sample OP7-2B, dilution of original sample 200",1.817 OD
same,OD492,"[1]; panel OP7-2, sample OP7-2C, dilution of original sample 400",1.346 OD
same,OD492,"[1]; panel OP7-2, sample OP7-2D, dilution of original sample 800",0.847 OD
same,OD492,"[1]; sample ODS001, undiluted",2.500 OD
same,OD492,"[1]; sample ODS002, undiluted",2.500 OD
same,OD492,"[1]; sample ODS003, undiluted",2.500 OD
same,OD492,"[1]; sample ODS004, undiluted",2.500 OD
same,OD492,"[1]; sample ODS006, undiluted",2.500 OD
same,OD492,"[1]; sample ODS007a, undiluted",2.500 OD
same,OD492,"[1]; sample ODS007b, undiluted",2.500 OD
same,OD492,"[1]; sample ODS009, undiluted",2.500 OD
same,recognition by antibodies produced in response to an HIV-1 group O infection,"[1]; undiluted specimens, in words",capable of recognizing peptide 147
same,OD492,type B sample,1.926 OD
same,detection of antibodies to HIV-1 group O compared with a naturally occurring isolate (peptide 80),[2]; in words,comparable to that of a naturally occurring isolate
same,luminescent units,[2]; peptide 0.020 ug/ml,0.619 luminescent units
same,luminescent units,[2]; peptide 0.039 ug/ml,0.504 luminescent units
same,luminescent units,[2]; peptide 0.078 ug/ml,0.740 luminescent units
same,luminescent units,[2]; peptide 0.156 ug/ml,1.199 luminescent units
same,luminescent units,[2]; peptide 0.313 ug/ml,2.090 luminescent units
same,luminescent units,[2]; peptide 0.625 ug/ml,3.093 luminescent units
same,luminescent units,[2]; peptide 1.250 ug/ml,2.885 luminescent units
same,luminescent units,[2]; peptide 2.500 ug/ml,2.374 luminescent units
